Test results published in patent US20130303439A1, “CHIMERIC PEPTIDES INCLUDING A PENETRATING PEPTIDE AND A BINDING DOMAIN OF PP2A CATALYTIC SUBUNIT TO CASPASE-9” (Institut National de la Sante et de la Recherche Medicale …, priority 2010, published 2013).
Residues, ends and D or L forms follow the SMILES beside them.

Test: Cell penetration / internalization of peptides
Format: cell-based

| Compound | Cell penetration | internalized |
| --- | --- | --- |
| CC[C@H](C)[C@H](NC(=O)CNC(=O)[C@H](CC(=O)O)NC(=O)[C@H](CC(C)C)NC(=O)[C@@H](NC(=O)[C@H](CCC(=O)O)NC(=O)[C@@H](NC(=O)[C@@H](N)Cc1ccc(O)cc1)[C@@H](C)CC)[C@@H](C)O)C(=O)N[C@@H](CC(C)C)C(=O)N[C@@H](CCC(=O)O)C(=O)N[C@@H](CCC(N)=O)C(=O)N[C@@H](Cc1c[nH]c2ccccc12)C(=O)N[C@@H](C)C(=O)N[C@@H](CCCNC(=N)N)C(=O)N[C@@H](CO)C(=O)N[C@@H](CCC(=O)O)C(=O)N[C@@H](CC(=O)O)C(=O)N[C@@H](CC(C)C)C(=O)O [C9, YIETLDGILEQWARSEDL] (H-YIETLDGILEQWARSEDL-OH; N-terminus and C-terminus assumed) | No | is not internalized |
| CC[C@H](C)[C@H](NC(=O)CNC(=O)[C@H](CC(=O)O)NC(=O)[C@H](CC(C)C)NC(=O)[C@@H](NC(=O)[C@H](CCC(=O)O)NC(=O)[C@@H](NC(=O)[C@H](Cc1ccc(O)cc1)NC(=O)[C@@H](NC(=O)[C@H](CCCCN)NC(=O)[C@@H](NC(=O)[C@H](CCC(=O)O)NC(=O)[C@H](CCCNC(=N)N)NC(=O)[C@H](CCCCN)NC(=O)[C@@H](NC(=O)[C@H](CCCCN)NC(=O)[C@H](CCCCN)NC(=O)[C@H](CCCCN)NC(=O)[C@H](CCCCN)NC(=O)[C@@H](N)C(C)C)[C@@H](C)CC)[C@@H](C)CC)[C@@H](C)CC)[C@@H](C)CC)[C@@H](C)O)C(=O)N[C@@H](CC(C)C)C(=O)N[C@@H](CCC(=O)O)C(=O)N[C@@H](CCC(N)=O)C(=O)N[C@@H](Cc1c[nH]c2ccccc12)C(=O)N[C@@H](C)C(=O)N[C@@H](CCCNC(=N)N)C(=O)N[C@@H](CO)C(=O)N[C@@H](CCC(=O)O)C(=O)N[C@@H](CC(=O)O)C(=O)N[C@@H](CC(C)C)C(=O)O [DPT-C9, VKKKKIKREIKI-YIETLDGILEQWARSEDL] (H-VKKKKIKREIKIYIETLDGILEQWARSEDL-OH; N-terminus and C-terminus assumed) | Yes | are internalized |
| CC[C@H](C)[C@H](NC(=O)[C@H](CC(C)C)NC(=O)[C@H](CCC(=O)O)NC(=O)[C@H](CCC(N)=O)NC(=O)[C@H](Cc1c[nH]c2ccccc12)NC(=O)[C@H](C)NC(=O)[C@H](CCCNC(=N)N)NC(=O)[C@H](CO)NC(=O)[C@H](CCC(=O)O)NC(=O)[C@H](CC(=O)O)NC(=O)[C@H](CC(C)C)NC(=O)[C@@H](NC(=O)[C@H](CCCCN)NC(=O)[C@@H](NC(=O)[C@H](CCC(=O)O)NC(=O)[C@H](CCCNC(=N)N)NC(=O)[C@H](CCCCN)NC(=O)[C@@H](NC(=O)[C@H](CCCCN)NC(=O)[C@H](CCCCN)NC(=O)[C@H](CCCCN)NC(=O)[C@H](CCCCN)NC(=O)[C@@H](N)C(C)C)[C@@H](C)CC)[C@@H](C)CC)[C@@H](C)CC)C(=O)NCC(=O)N[C@@H](CC(=O)O)C(=O)N[C@@H](CC(C)C)C(=O)N[C@H](C(=O)N[C@@H](CCC(=O)O)C(=O)N[C@H](C(=O)N[C@@H](Cc1ccc(O)cc1)C(=O)O)[C@@H](C)CC)[C@@H](C)O [DPT-C9r, VKKKKIKREIKI-LDESRAWQELIGDLTEIY] (H-VKKKKIKREIKILDESRAWQELIGDLTEIY-OH; N-terminus and C-terminus assumed) | Yes | are internalized |
| N=C(N)NCCC[C@H](NC(=O)[C@H](CCCNC(=N)N)NC(=O)[C@H](CCCNC(=N)N)NC(=O)[C@H](CCC(N)=O)NC(=O)[C@H](CCCNC(=N)N)NC(=O)[C@H](CCCNC(=N)N)NC(=O)[C@H](CCCCN)NC(=O)[C@H](CCCCN)NC(=O)[C@H](CCCNC(=N)N)NC(=O)CNC(=O)[C@@H](N)Cc1ccc(O)cc1)C(=O)O [Tat, YGRKKRRQRRR] |  | are internalized |
